“Also recorded” adds a separate entry of the source. Like-named read-outs stand apart in the source and are kept apart here.

The term AUC denotes the area under the concentration-time curve, a measure of exposure. Low readings indicate less exposure, high ones more exposure.

Series [1] has as its system Aß amyloid peptide. To be noted: at nanomolar concentrations; laboratory testing (Hori 2015; Elmaleh 2014); cited from earlier work.
Series [2] concerns unilateral hypoxia-ischemia in neonatal rats. The conditions noted are these: given at the end of the hypoxic period, assessed at 48 hours; cited from earlier work.
The test system of series [3] is hemorrhage formation after tPa treatment. The conditions noted are these: adult rats; intracerebral injection; cited from earlier work.
The conditions of series [4]: for maximum plasma concentration / time of maximum plasma concentration: mean ± spread.
The test system of series [5] is transient middle cerebral artery occlusion. To be noted: adult rats; intracerebral injection; cited from earlier work.
The subject of series [6] is experimental cerebral ischemia/reperfusion. The conditions noted are these: cited from earlier work.
The test system of series [7] is Aß amyloid peptide. Kind of series: In vitro assays of Aß amyloid peptide polymerization into oligomers and aggregates. The conditions noted are these: at nanomolar concentrations. The format is biochemical. As for the experimental part:
One of the most routinely used approaches to monitor Aβ polymerization is the thioflavin T binding assay (Elmaleh, 2014; Hori, 2015). […] AO peptide at 5 μM was mixed with 10 μM thioflavin T with drug at different concentrations.
Fibrillization of synthetic Aß40 (left column) or Aß42 (right column) peptides was followed over 1 hour.

The nature of a further series: clinical. The conditions noted are these: human, in vivo, inhaled or intranasal, AUC (plasma).
The conditions of series [8]: cited from earlier work.
Another series relates to microglial cells. Kind of series: Microglia culture incubated with synthetic Aß40 or Aß42, Aß ELISA of media. To be noted: 0.10 nM, 10 μM or 1 mM Cromolyn Sodium, 16 hours. The format is cell-based. On the procedure:
After the incubation, the concentrations of […]-42 (right panel) in media were measured using Aß ELISA and normalized with microglia cell number and according to the PBS control condition. (n=3 experiments; *, P<0.05, **, P<0.01)
(ELISA stands for enzyme-linked immunosorbent assay.)

The test system of series [9] is APP/PS1 mice. Nature of the series: Short-term treatment of APP/PS1 mice, TBS soluble Aß in brain (ELISA, immunoblotting). The format is in vivo. To be noted: after 1 week of peripherally administered cromolyn sodium (intraperitoneally daily), 7.5 months old APP/PS1 mice.
Experimental: One week after daily injection, tris-buffered saline (TBS) soluble Aßx-40 (left graph) and Aßx-42 (right graph) were measured under the condition with (black bar) or without (white bar) pre-incubation with guanidine (Gdn)-HCl using Aß ELISA. The value under the incubation with Gdn-HCl show the concentration of total TBS soluble Aß, and the value under the no incubation with Gdn-HCl show the concentration of monomeric Aß. FIG. 5B: oligomeric Aß in TBS soluble brain extracts were measured using 82E1/82E1 Aß oligomer specific ELISA. FIG. 5C illustrates representative immunoblotting of TBS soluble brain extracts with anti-Aß antibody (6E10 and 82E1) (left panel). The densitometry of monomeric Aß was quantified (right graph). (n=3-5/group; *, P<0.05, **, P<0.01).
Series [10] has as its system APP/PS1 mice. Kind of series: Immunostaining of Aß and microglial marker Iba1 in brain sections. It counts as in vivo. To be noted: 3.15 mg/kg daily for seven days vs PBS.
Where [11] appears, read: 34.2 mg double inhaled dose, range.

`O=C([O-])c1cc(=O)c2c(OCC(O)COc3cccc4oc(C(=O)[O-])cc(=O)c34)cccc2o1.[Na+].[Na+]` [Cromolyn]: the “binding to and inhibition of amyloid β (Aβ) peptide oligomerization” value in the series with Aß amyloid peptide [1] is “bind to and inhibit”. Also, the glial activation entry in series [2] is given as “limited”. Moreover, the mast cell migration/degranulation result in [2] is “limited”. Moreover, in series [2], the neuronal loss entry is “limited”. Also, the “hemorrhage formation after tPa treatment” value in series [3] is recorded as “inhibited”. The maximum plasma concentration in [4] (17.1 mg single inhaled dose, healthy volunteers) was determined as 47.1 ± 33.6 ng/mL; in [4] (34.2 mg double inhaled dose), 95.0 ± 45.5 ng/mL. Also, the figures for the “time of maximum plasma concentration” value in series [4] (17.1 mg single inhaled dose) and in [4] (34.2 mg double inhaled dose) were 23.3 ± 16.9 min and 22.2 ± 19.4 min, respectively. Besides, the “time of maximum plasma concentration, range” value in series [4] (17.1 mg single inhaled dose, range) is 5 to 60 min; in series [4] (setting [11]), 5 to 60 min. The “maximum plasma concentration, range” value was 14.0 to 133 ng/mL in series [4] (17.1 mg single inhaled dose, range over subjects) and 36.1 to 236 ng/mL in [4] (setting [11]). In addition, in series [5], the neutrophil accumulation result is listed as “reduced”. Further, the “survival of experimental animals” value in series [6] is reported as “improved survival”. The “inhibition of Aß aggregation / polymerization into oligomers and higher order aggregates” value in the series with Aß amyloid peptide [7] was “inhibition; also recorded: effectively inhibits”. The AUC in “clinical” (17.1 mg, 17.1 mg single dose inhalation, mean ± spread) was 0.147 ± 0.0671 µg·h/mL; in “clinical” (17.1 mg, range, 17.1 mg single dose inhalation) it was 0.0447 to 0.287 µg·h/mL; in “clinical” (34.2 mg, 34.2 mg double dose inhalation, mean ± spread), 0.254 ± 0.0938 µg·h/mL; in the series “clinical” (34.2 mg, range, 34.2 mg double dose inhalation), 0.122 to 0.443 µg·h/mL. Also, in series [8], the “variability of plasma levels following inhalation” value is on record as “high intraand inter-subject variability”. Further, the “cromolyn uptake by asthmatics” value in [8] (inhalation, compared with healthy volunteers) is on record as “lower than by healthy volunteers”.
With `O=C(O)c1cc(=O)c2c(OCC(O)COc3cccc4oc(C(=O)O)cc(=O)c34)cccc2o1` [cromolyn sodium], the “Aß40 levels in media of microglia culture” value with microglial cells (50 nM synthetic Aß40) is “dose-dependent decrease”. Further, the “Aß42 levels in media of microglia culture” value in the series with microglial cells (50 nM synthetic Aß42) is “dose-dependent decrease”. For the same compound, the “decrease of total soluble Aβ levels” value with APP/PS1 mice [9] was “over 50%”. Moreover, the “percentage of Iba1 immunoreactivity overlapping with amyloid” value was “higher percentage” in the series on APP/PS1 mice [10] and “increased overlap” in the series on APP/PS1 mice [10] (listed as Cromolyn Sodium).

These data come from patent US20220125753A1, “COMPOSITIONS AND METHODS FOR TREATING ISCHEMIC STROKE” (The General Hospital Corporation, priority 2015, published 2022).
